Measured values: patent publication US11931482B2 (priority 2019, dated 2024)

What was measured:
[1] = system: MRSA USA300; test: Kirby-Bauer assay, inner and outer surfaces of bisected coated catheters; type: cell-based; settings: Staphylococcus aureus, read-out: average zone of inhibition diameter
Description: To evaluate the auranofin release, the inventors used a Kirby Bauer assay to visualize the bacterial inhibition and determine if the catheter released the auranofin into the surrounding media. Coated catheters were split through the circumference of the material to expose both the inner and outer surfaces. […] The inventors then placed these catheter pieces were then placed on a bacteria-seeded agar plate with the respective surfaces face down.
Antibacterial and antibiofilm activity of PU+auranofin catheter coatings was examined against MRSA USA300, a community-associated MRSA strain. Kirby-Bauer and broth bacteria survival assays on the coated catheters and their release solutions were conducted, respectively. For the Kirby-Bauer assay, MRSA USA300 in the exponential growth phase at a concentration of 10^8 CFU/mL was spread on tryptic soy agar plates. PU+auranofin-coated and PU+auranofin-uncoated catheters were cut in half lengthwise using a scalpel. Both the inner and outer surfaces of the catheters were placed in direct contact with the bacteria seeded agar and incubated for twenty-four hours at 37° C. These plates were then photographed using a Canon PowerShot S110 digital camera (Tokyo, Japan).

[2] = system: Gram-positive pathogenic bacteria, including Mycobacterium tuberculosis, Bacillus subtilis, Enterococcus faecalis, Enterococcus faecium, Staphylococcus aureus; settings: Hassanein et al. 2017; cited from earlier work
[3] = oral antirheumatic therapy; Egsmose et al. 1995; cited from earlier work
[4] = system: preformed Staphylococcus aureus biofilms; settings: within two hours of exposure; Torres et al. 2016; cited from earlier work
[5] = system: Staphylococcus aureus strain MRSA USA300; test: Microdilution assay, minimum inhibitory concentration of non-coating incorporated auranofin; type: cell-based; settings: TSBG, ~18 hours
Experimental: Auranofin release from PU+auranofin-coated catheters was monitored by incubating each coated catheter in 1.98 mL of tryptic soy broth supplemented with 0.25% glucose (TSBG) at 37° C. with shaking at 110 rpm. […] Heilmann et al., Infect. Immun., 64, 277-82 (1996); Lim et al., J. Bacteriol., 186, 722-729 (2004). Every twenty-four hours, the release solutions were collected and completely replaced with fresh medium. A microdilution assay, as described by Shukla & Shukla, J. Mater. Chem. B, 6, 6444-6458 (2018), was used to determine the amount of auranofin contained in the media release samples by comparing the antibacterial activity to that of known concentrations of non-coating incorporated auranofin. […] Staphylococcus aureus strain MRSA USA300 (10 μL) at a final concentration of 10^5 CFU/mL in the exponential growth phase (as determined by optical density) was added to these wells. […] Subsequently, the optical density (OD) of the samples was read at 600-nm using a Cytation3 microplate reader (BioTek, Winooski, VT, USA). The normalized bacteria density was calculated using Equation (1).
The minimum inhibitory concentration of the auranofin control against USA300 was determined as the concentration range of auranofin needed to observe a statistically significant transition of normalized bacteria density from […]. […]

SMILES: CN[C@H](CC(C)C)C(=O)N[C@H]1C(=O)N[C@@H](CC(N)=O)C(=O)N[C@H]2C(=O)N[C@H]3C(=O)N[C@H](C(=O)N[C@H](C(=O)O)c4cc(O)cc(O)c4-c4cc3ccc4O)[C@H](O)c3ccc(c(Cl)c3)Oc3cc2cc(c3O[C@@H]2O[C@H](CO)[C@@H](O)[C@H](O)[C@H]2O[C@H]2C[C@](C)(N)[C@H](O)[C@H](C)O2)Oc2ccc(cc2Cl)[C@H]1O [vancomycin]
- zone of inhibition at 30 µg/disc [1]: 14.8 ± 2 mm

SMILES: CC(=O)OCC1OC([S-])C(OC(C)=O)C(OC(C)=O)C1OC(C)=O.CCP(CC)CC.[Au+] (centres unmarked) [auranofin, Gold(+1) cation; 3,4,5-triacetyloxy-6-(acetyloxymethyl) oxane-2-thiolate; triethylphosphanium]
- minimum inhibitory concentration (MIC) against these bacteria [2]: ≥ 0.25 µg/mL
- cumulative toxicity during long-term treatments [3]: no cumulative toxicity
- effect on preformed Staphylococcus aureus biofilms [4]: inhibit preformed Staphylococcus aureus biofilms
- minimum inhibitory concentration against USA300 [5]: 0.063 µg/mL
